Laboratory results reported in patent publication US20230080054A1 (ILDONG PHARMACEUTICAL CO., LTD., priority 2021, published 2023).

target: T1, human ANO6 (Homo sapiens, UniProt Q4KMQ2); experiment: YFP quenching assay (ANO6 ion channel activity); type: cell-based; settings: test compound 1 μM, 10 μM ionomycin, read-out: Inhibition Level 1 μM
T1 construct: expressed in transfected cells
T1 sequence (Q4KMQ2 1-931 isoform Q4KMQ2-2): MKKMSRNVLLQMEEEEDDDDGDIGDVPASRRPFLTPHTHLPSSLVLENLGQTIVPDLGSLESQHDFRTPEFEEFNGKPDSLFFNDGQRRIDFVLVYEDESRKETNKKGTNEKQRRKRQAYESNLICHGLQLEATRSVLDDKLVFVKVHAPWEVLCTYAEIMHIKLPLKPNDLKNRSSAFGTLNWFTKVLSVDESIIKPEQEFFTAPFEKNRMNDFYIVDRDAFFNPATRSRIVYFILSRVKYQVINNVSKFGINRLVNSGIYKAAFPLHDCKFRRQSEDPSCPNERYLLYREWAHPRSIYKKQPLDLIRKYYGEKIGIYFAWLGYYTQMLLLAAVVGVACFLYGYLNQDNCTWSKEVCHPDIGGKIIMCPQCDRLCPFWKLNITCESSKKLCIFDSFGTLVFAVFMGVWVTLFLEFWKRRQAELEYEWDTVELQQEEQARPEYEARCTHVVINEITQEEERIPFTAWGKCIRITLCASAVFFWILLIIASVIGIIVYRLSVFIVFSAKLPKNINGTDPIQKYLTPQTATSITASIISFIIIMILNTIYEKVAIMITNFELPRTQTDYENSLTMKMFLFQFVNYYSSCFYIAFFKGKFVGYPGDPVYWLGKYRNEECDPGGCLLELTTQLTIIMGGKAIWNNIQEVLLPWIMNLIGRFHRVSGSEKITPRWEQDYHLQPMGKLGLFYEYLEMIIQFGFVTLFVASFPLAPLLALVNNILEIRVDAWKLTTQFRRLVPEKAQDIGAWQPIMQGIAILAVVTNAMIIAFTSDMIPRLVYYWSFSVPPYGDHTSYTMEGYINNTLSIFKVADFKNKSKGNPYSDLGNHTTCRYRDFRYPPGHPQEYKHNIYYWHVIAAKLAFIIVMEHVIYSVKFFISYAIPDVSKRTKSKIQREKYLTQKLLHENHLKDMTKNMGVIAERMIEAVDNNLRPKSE
Method in brief: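 FRT cells stably expressing human ANO6 and YFP-H148Q/I152L/F46L, preincubated 10 min at 40° C with compounds (1% DMSO) in PBS. Quench read every 0.4 s after injecting 140 mM SCN- with 10 μM ionomycin; % inhibition from the 3.6–7.6 s fluorescence difference, normalised to no-ionomycin (100%) and ionomycin-only (0%) wells, duplicate or triplicate.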

SMILES	inhibition at 1 µM
O=C(N[C@@H]1C[C@H]1c1ccccc1)c1cccc(Nc2ncc(-c3cccc(F)c3)cn2)c1 [Compound 119, 3-{[5-(3-fluorophenyl)pyrimidin-2-yl]amino}-N-[(1R,2S)-2-phenylcyclopropyl]benzamide]	≥ 60%
O=C(Nc1ccc(Cl)c(Cl)c1)c1cccc(Nc2ncc(-c3cccc(F)c3)cn2)c1 [Compound 118, N-(3,4-dichlorophenyl)-3-{[5-(3-fluorophenyl)pyrimidin-2-yl]amino}benzamide]	≥ 60%
O=C(NCCC1CCCCC1)c1cccc(Nc2ncc(-c3cccc(F)c3)cn2)c1 [Compound 80, N-(2-cyclohexylethyl)-3-{[5-(3-fluorophenyl)pyrimidin-2-yl]amino}benzamide]	≥ 60%
O=C(N[C@@H]1C[C@H]1c1ccccc1)c1cccc(Nc2ccc(-c3cccc(F)c3)cn2)c1 [Compound 123, 3-{[5-(3-fluorophenyl)pyridin-2-yl]amino}-N-[(1R,2S)-2-phenylcyclopropyl]benzamide]	≥ 60%
O=C(N[C@@H]1C[C@H]1c1ccccc1)c1cccc(Nc2ccc(-c3ccccc3)nn2)c1 [Compound 68, N-[(1R,2S)-2-phenylcyclopropyl]-3-[(6-phenylpyridazin-3-yl)amino]benzamide]	≥ 60%
O=C(NCCc1cccc(C(F)(F)F)c1)c1cccc(Nc2ncc(-c3cccc(F)c3)cn2)c1 [Compound 79, 3-{[5-(3-fluorophenyl)pyrimidin-2-yl]amino}-N-{2-[3-(trifluoromethyl)phenyl]ethyl}benzamide]	≥ 60%
O=C(Nc1cccc(F)c1)c1cccc(Nc2ccc(-c3cccc(F)c3)cn2)c1 [Compound 122, N-(3-fluorophenyl)-3-{[5-(3-fluorophenyl)pyridin-2-yl]amino}benzamide]	≥ 60%
